Measured values from paper PMC6479349, “Derivatives of 3-Aminopyrazine-2-carboxamides: Synthesis, Antimicrobial Evaluation, and in Vitro Cytotoxicity” (Molecules, 2019).
≈ marks a conversion by molar mass, not a printed value. Where “and” joins values, the source holds several entries; their conditions need not be identical. Equal entries are not always repeated.

Tests used:
[1] = test system: Mycobacterium tuberculosis H37Rv; assay: Antimycobacterial microdilution broth MIC (Alamar Blue); format: cell-based
[2] = test system: Trichophyton interdigitale CCM 8377; assay: Antifungal microdilution broth MIC; conditions: for MIC: Trichophyton interdigitale, CCM8377, 72 h, read-out: MIC72h TI
[3] = Lipophilicity by reverse phase HPLC (log k); conditions: RP-HPLC C18, MeOH 70% / H2O 30%, 30 °C
Protocol: The mobile phase consisted of MeOH (HPLC grade, 70%) and H2O (HPLC-Milli-Q Grade, 30%). The flow rate was 1.0 mL/min, samples were injected in a volume of 20 µL, and the column temperature was 30 °C. Detection and monitoring wavelength were 210 nm and 270 nm, respectively. Retention times (Rt) were measured in minutes. The dead time of the system (Dt) was determined as the retention time of the KI methanolic solution. Capacity factors k for individual compounds were calculated according to the formula k = (Rt – Dt)/Dt. Capacity factor k was converted to log scale and (log k) and used as a measure of lipophilicity.

[4] = test system: Mycobacterium smegmatis DSM 43465; assay: Antimycobacterial microdilution broth panel MIC (resazurin); format: cell-based
[5] = test system: M. kansasii CNCTC My 235/80; assay: Antimycobacterial microdilution broth MIC (Alamar Blue); format: cell-based, Mycobacterium kansasii; conditions: Mycobacterium kansasii
tested bacterial strains = assay: Antibacterial microdilution broth screening, strain not specified; conditions: read-out: MIC against the tested strains (antibacterial)
[6] = In vitro cytotoxicity, CellTiter 96 Aqueous One; conditions: human
[7] = Mycobacterium tuberculosis, H37RV, M. tuberculosis H37Rv, value in parentheses
[8] = Mycobacterium tuberculosis, H37RV, pH 6.6, M. tuberculosis H37Rv, Middlebrook 7H9 pH 6.6
[9] = Mycolicibacterium smegmatis, DSM43465
[10] = Mycolicibacterium smegmatis, DSM43465, value in parentheses
[11] = M. tuberculosis H37Rv, Middlebrook 7H9 pH 6.6
[12] = M. tuberculosis H37Rv, value in parentheses

Row | Compound | MIC [1, 7] [µM] | MIC [1, 8] [µg/mL] | antifungal activity against TI [2] | log k [3] | MIC [4, 9] [µg/mL] | MIC [4, 10] [µM] | MIC Mtb [1, 11] [µg/mL] | MIC [2] [µM] | MIC [1, 12] [µM] | MIC [5] | MIC (tested bacterial strains) [µM] | IC50 at 24 h [6] [µM] | MIC ([4]; value in parentheses) [µM]
1 | Nc1nccnc1C(=O)NCc1ccccc1 [Compound 1, 3-Amino-N-benzylpyrazine-2-carboxamide] | > 438 | > 100 | showed activity mainly against TI | 0.056 | > 500 | > 2190 | – | – | – | – | – | – | –
2 | Cc1ccccc1CNC(=O)c1nccnc1N [Compound 2, 3-Amino-N-(2-methylbenzyl)pyrazine-2-carboxamide] | > 413 | > 100 | – | 0.278 | > 500 | > 2060 | – | – | – | – | – | – | –
3 | Cc1ccc(CNC(=O)c2nccnc2N)cc1 [Compound 3, 3-Amino-N-(4-methylbenzyl)pyrazine-2-carboxamide] | 413 | 50 to 100 | showed activity mainly against TI | 0.289 | > 500 | > 2060 | 100 (≈ 413 µM) | – | – | – | – | – | –
4 | COc1ccc(CNC(=O)c2nccnc2N)cc1 [Compound 4, 3-Amino-N-(4-methoxybenzyl)pyrazine-2-carboxamide] | 387 | 50 to 100 | showed activity mainly against TI | 0.026 | > 500 | > 1940 | 100 (≈ 387 µM) | – | – | – | – | – | –
5 | COc1ccc(CNC(=O)c2nccnc2N)c(OC)c1 [Compound 5, 3-Amino-N-(2,4-dimethoxybenzyl)pyrazine-2-carboxamide] | > 347 | > 100 | – | 0.188 | > 500 | > 1730 | – | – | – | – | – | – | –
6 | Nc1nccnc1C(=O)NCc1ccc(Cl)c(Cl)c1 [Compound 6, 3-Amino-N-(3,4-dichlorobenzyl)pyrazine-2-carboxamide] | > 336 | > 100 | – | 0.493 | > 500 | > 1680 | – | – | – | – | – | – | –
7 | Nc1nccnc1C(=O)NCc1cccc(C(F)(F)F)c1 [Compound 7, 3-Amino-N-(3-(trifluoromethyl)benzyl)pyrazine-2-carboxamide] | 169 | 50 to 100 | showed activity mainly against TI | 0.282 | 250 | 844 | 50 (≈ 169 µM) | – | – | – | – | – | –
8 | Nc1nccnc1C(=O)NCc1ccc(C(F)(F)F)cc1 [Compound 8, 3-Amino-N-(4-(trifluoromethyl)benzyl)pyrazine-2-carboxamide] | 169 | 50 to 100 | – | 0.308 | > 500 | > 1690 | 50 (≈ 169 µM) | – | – | – | – | – | –
9 | CCCCCNC(=O)c1nccnc1N [Compound 9, 3-Amino-N-pentylpyrazine-2-carboxamide] | > 480 | > 100 | – | 0.327 | > 500 | > 2400 | – | 500 (≈ 104 µg/mL) | – | – | – | – | –
10 | CCCCCCNC(=O)c1nccnc1N [Compound 10, 3-Amino-N-hexylpyrazine-2-carboxamide] | 450 | 100 | – | 0.569 | 250 | 1120 | – | 250 (≈ 55.6 µg/mL) | 449.9 | 100 µg/mL and 450 µM | 500 (≈ 111 µg/mL) | 389 | –
11 | CCCCCCCNC(=O)c1nccnc1N [Compound 11, 3-Amino-N-heptylpyrazine-2-carboxamide] | 212 | 50 | – | 0.813 | 62.5 | 264 | – | 500 (≈ 118 µg/mL) | 211.6 | 50 µg/mL and 212 µM | 250 (≈ 59.1 µg/mL) | – | 264.5
